Results taken from patent EP1199078A1, “ANALGESICS” (ONO PHARMACEUTICAL CO., LTD., priority 1999, dated 2000).
Where a name gives a salt, the structure may show the parent alone.

Tests used:
formalin model in rats = assay: Formalin test in rats, intrathecal injection; assay type: in vivo, Sprague-Dawley rats; conditions: for number of flinch: both doses, 2 or 20µg/10µl/rat intrathecally 10min prior to formalin, compared to vehicle treated group
Description: (§1) Eight weeks old male Sprague-Dawley rats were used. According to the method of Yaksh et al., the rat was mounted on the brain stereotaxis apparatus under sodium pentobarbital anesthesia and a polyethylene tube filled with saline was threaded approximately 3cm into intraspinal side through the cisternal incision.
A day after implantation, the rat had no hindlimb paralysis was administered 50µl of 5% formalin subcutaneously and was placed in the observational plastic cage immediately. Formalin injection time was regarded as 0min and for 1min every 5min until 60min, number of leg-up response (flinch) was counted. The compound of formula (IA-1) ((+)-trans-3-imino-5-methyl-7-chloro-2-azabicyclo[4.1.0]heptane Monohydrochloride) of the present invention was dissolved in saline, subsequently the dose of 2 or 20µg/10µl/rat was administered intrathecally via polyethylene tube 10min prior to the formalin injection.

[1] = test system: Bennett hyperalgesia model in rats; assay: Hyperalgesia to thermostimulus in Bennett model in rats (plantar test), intrathecal injection; assay type: in vivo, Sprague-Dawley rats
Excerpt: as §1, with “Seven” for “Eight”, “al. (J.Physiol. Behav. Vol.17, pp.1031-1036, 1976),” for “al.,”, “about” for “approximately”
A day after implantation, rats had no hindlimb paralysis were restrained in a prostrate position after induction of anesthetization with pentobarbital sodium. According to the method of Bennett and Xie et al. (Pain, Vol.33, pp.87-107, 1988), an incision of 2cm was cut along the skin of the femoral region of the right hindlimb, and the exposed sciatic nerve was constricted with 2 pieces of gut suture at 2 distal sites, and the incision was closed with a piece of silk suture. The left hindlimb was similarly operated on without performing any constriction of the sciatic nerve (sham-operated hindlimb).
Six days after the operation, the response latency to nociceptive thermostimulus was determined with the plantar test device, and rats with hyperalgesia were selected for the drug evaluation study on next day. […] By using a digital timer installed in the plantar testing device, the interval (response latency) from initiation of illumination to the time required for the animal to lift the hindlimb in an attempt to escape was measured. […]

allodynia model in rats = conditions: treatment of 50 µmol/kg, Neuroreport, Vol. 9, pp.367-372 (1998); cited from earlier work

Row | SMILES | number of flinch (formalin model in rats; first phase (0-10min after formalin injection)) | analgetic effects (formalin model in rats; formalin test in rats, summary statement) | number of flinch (formalin model in rats; second phase (10-60min after formalin injection)) | hyperalgesia to nociceptive thermostimulus ([1]; 0.2, 2 or 20µg/10µl/rat intrathecally 20min prior to plantar test, compared to vehicle treated rats) | analgetic effects ([1]; Bennett model in rats, summary statement) | effect on allodynia model (allodynia model in rats)
1 | C[C@H]1CC(=N)N[C@@H]2[C@H](Cl)[C@@H]21 [IA-1, (+)-trans-3-imino-5-methyl-7-chloro-2-azabicyclo[4.1.0]heptane Monohydrochloride] | decreased | showed analgetic effects | decreased | improved | showed analgetic effects | –
2 | COC(=O)[C@@H](N)CCCNC(=N)N[N+](=O)[O-] [L-NAME] | – | – | – | – | – | showed effect
